Measurements published in patent publication US11446315B2, “Enhancement of CD47 blockade therapy by proteasome inhibitors” (PF Argentum IP Holdings LLC, priority 2016, dated 2022).

Tests used:
Format in all cases: cell-based, human
[1] = system: MM1s multiple myeloma cell line; assay: Macrophage phagocytosis assay, MM1s tumor cells pre-cultured with proteasome inhibitor (FIGS. 1A, 2A)
Description: (§1) FIGS. 1A and 1B show results when the multiple myeloma cell lines MM1s and H929 are cultured in the presence of the proteasome inhibitor bortezomib (at either 1, 5 or 10 nM) for 48 hours. The 0 result represents phagocytosis of cells that were not treated with bortezomib. Cells are then washed; macrophages and SIRPαFc (at 1, 5 or 100 nM) or Control Fc are added and the mixture is then subjected to the phagocytosis assay described herein.
(§2) FIGS. 2A and 2B show results from an experiment in which bortezomib is replaced by the proteasome inhibitor carfilzomib, which is then investigated as described in FIGS. 1A-1B. The 0 result represents phagocytosis of cells that were not treated with carfilzomib.
(§3) To generate the results represented in FIGS. 1A-1B and 2A-2B, heparinized whole blood was obtained from normal healthy human donors (Biological Specialty Corporation) and informed consent was obtained from all donors. Peripheral blood mononuclear cells (PBMCs) were isolated over Ficoll-Paque Plus density gradient (GE Healthcare) and CD14+ monocytes were isolated from PBMCs by positive selection using CD14 antibody-coated MicroBead separation (Miltenyi Biotec). […] Phagocytosis was assessed as % VPD450+ cells of live, single CD14+CD11b+macrophages by flow cytometry. […]

[2] = system: H929 multiple myeloma cell line; assay: Macrophage phagocytosis assay, H929 tumor cells pre-cultured with proteasome inhibitor (FIGS. 1B, 2B)
Description: as §1, §2, §3

[3] = system: SU-DHL-6 diffuse large cell lymphoma (DLBCL) cell line; assay: Macrophage phagocytosis assay, SU-DHL-6 tumor cells pre-cultured with proteasome inhibitor (FIGS. 3A-3F); conditions: SU-DHL-6 cultured 48 hours in bortezomib (10 nM), carfilzomib (10 nM) or ixazomib (25 nM); CD47 blockade drug at 100 nM, 2 hours co-culture; untreated vs proteasome inhibitor treated tumor cells, unpaired t-test
Description: (§4) FIGS. 3A-3F show the effect of proteasome inhibition on phagocytosis mediated by CD47 blockade, from an experiment supplemental to that represented in FIGS. 1A-1B and 2A-2B. The diffuse large cell lymphoma (DLBCL) cell line SU-DHL-6 and the multiple myeloma (MM) cell line MM1.S were cultured in the presence or absence of the proteasome inhibitors bortezomib (10 nM), carfilzomib (10 nM) or ixazomib (25 nM) for 48 hours. Cells were thereafter washed; macrophages and SIRPαFc proteins, CD47 monoclonal antibody (CD47 mAb) or Control Fc (at 100 nM) were added, and the mixture was then subjected to the phagocytosis assay as described infra.
(§5) To generate the results represented in FIGS. 3A-3F, macrophages were prepared from human peripheral blood mononuclear cells (PBMCs) obtained from healthy donors (BioreclamationIVT); informed consent was obtained from all donors. CD14+ monocytes were isolated by positive selection using the EasySep® human monocyte isolation kit (Stemcell Technologies). Monocytes were differentiated into macrophages by culturing the cells in X-VIVO 15 media (Lonza) supplemented with human m-CSF (PeproTech) for 10 days. Macrophages were primed with human IFNγ (PeproTech) one day prior to the phagocytosis assay. 48 hours prior to the phagocytosis assay, bortezomib (10 nM), carfilzomib (10 nM) or ixazomib (25 nM) were added to tumor cells. On the day of the phagocytosis assay, tumor cells (MM1.S or SU-DHL-6) were labeled with Violet Proliferation Dye 450 (BD Biosciences) and cultured with IFNγ-primed macrophages. Macrophages and tumor cells were co-cultured for 2 hours in the presence of 100 nM SIRPαFc (V region of human SIRPα variant 2 fused with IgG1 Fc), SIRPαFc (V region of human SIRPα variant 2 fused with IgG4 Fc), vSIRPαFc (high affinity CV1 variant of V region of human SIRPα fused with mutated IgG4) [SEQ ID No. 12], CD47 monoclonal antibody B6H12 [SEQ ID Nos. 13 and 14] or Control Fc (wild type human IgG4 with stabilized hinge). Cells were subsequently stained with a viability dye, APC-conjugated anti-human CD14 (61D3, eBioscience), and PE-conjugated anti-human CD11b (ICRF44, eBioscience). Macrophages were identified as live, single, CD14+CD11b+ cells. Doublets were excluded by SSC-W and SSC-H discrimination. Percent phagocytosis was assessed as the percent of macrophages that were VPD450+. Unpaired t-tests comparing the percentage of phagocytosis of untreated vs proteasome inhibitor treated tumor cells were performed (*P≤0.05, **P≤0.01, ***P≤0.001).

[4] = system: MM1.S multiple myeloma (MM) cell line; assay: Macrophage phagocytosis assay, MM1.S tumor cells pre-cultured with proteasome inhibitor (FIGS. 3A-3F); conditions: MM1.S cultured 48 hours in bortezomib (10 nM), carfilzomib (10 nM) or ixazomib (25 nM); CD47 blockade drug at 100 nM, 2 hours co-culture; untreated vs proteasome inhibitor treated tumor cells, unpaired t-test
Description: as §4, §5

| Molecule | SIRPαFc-mediated phagocytosis (% VPD450+ of live, single CD14+CD11b+ macrophages) ([1]; MM1s cultured in 10 nM carfilzomib for 48 hours, at all concentrations of SIRPαFc tested (1, 5 or 100 nM), versus cells not treated with carfilzomib) | SIRPαFc-mediated phagocytosis (% VPD450+ of live, single CD14+CD11b+ macrophages) ([2]; H929 cultured in 10 nM carfilzomib for 48 hours, at all concentrations of SIRPαFc tested (1, 5 or 100 nM), versus cells not treated with carfilzomib) | Percent phagocytosis mediated by CD47 blockade (percent of macrophages VPD450+) [3] | Percent phagocytosis mediated by CD47 blockade (percent of macrophages VPD450+) [4] | SIRPαFc-mediated phagocytosis (% VPD450+ of live, single CD14+CD11b+ macrophages) ([1]; MM1s cultured in bortezomib (1, 5 or 10 nM) for 48 hours, then macrophages and SIRPαFc (1, 5 or 100 nM), versus cells not treated with bortezomib) | SIRPαFc-mediated phagocytosis (% VPD450+ of live, single CD14+CD11b+ macrophages) ([2]; H929 cultured in bortezomib (1, 5 or 10 nM) for 48 hours, then macrophages and SIRPαFc (1, 5 or 100 nM), versus cells not treated with bortezomib) |
| --- | --- | --- | --- | --- | --- | --- |
| CC(C)C[C@H](NC(=O)[C@H](CCc1ccccc1)NC(=O)CN1CCOCC1)C(=O)N[C@@H](Cc1ccccc1)C(=O)N[C@@H](CC(C)C)C(=O)[C@@]1(C)CO1 [carfilzomib] | significant increase in SIRPαFc-mediated phagocytosis | significant increase in SIRPαFc-mediated phagocytosis | significantly increased SIRPαFc-mediated phagocytosis or CD47 mAb-mediated phagocytosis | significantly increased SIRPαFc-mediated phagocytosis or CD47 mAb-mediated phagocytosis | – | – |
| CC(C)C[C@H](NC(=O)CNC(=O)c1cc(Cl)ccc1Cl)B(O)O [ixazomib] | – | – | significantly increased SIRPαFc-mediated phagocytosis or CD47 mAb-mediated phagocytosis | significantly increased SIRPαFc-mediated phagocytosis or CD47 mAb-mediated phagocytosis | – | – |
| SIRPαFc (V region of human SIRPα variant 2 fused with IgG4 Fc): V region of human SIRPα variant 2 fused with IgG4 Fc | – | – | significant increase in phagocytosis | significant increase in phagocytosis | – | – |
| CC(C)C[C@H](NC(=O)[C@H](Cc1ccccc1)NC(=O)c1cnccn1)B(O)O [bortezomib] | – | – | significantly increased SIRPαFc-mediated phagocytosis or CD47 mAb-mediated phagocytosis | significantly increased SIRPαFc-mediated phagocytosis or CD47 mAb-mediated phagocytosis | increased SIRPαFc-mediated phagocytosis | increased SIRPαFc-mediated phagocytosis |
| vSIRPαFc: high affinity CV1 variant of V region of human SIRPα fused with mutated IgG4, SEQ ID No. 12 (protein, listed as Homo sapiens) EEELQIIQPDKSVSVAAGESAILHCTITSLFPVGPIQWFRGAGPARVLIYNQRQGPFPRVTTVSETTKRENMDFSISISNITPADAGTYYCIKFRKGSPDTEFKSGAGTELSVRAKPSESKYGPPCPPCPAPPVAGPSVFLFPPKPKDTLMISRTPEVTCVVVDVSQEDPEVQFNWYVDGVEVHNAKTKPREEQFNSTYRVVSVLTVLHQDWLNGKEYKCKVSNKGLPSSIEKTISKAKGQPREPQVYTLPPSQEEMTKNQVSLTCLVKGFYPSDIAVEWESNGQPENNYKTTPPVLDSDGSFFLYSRLTVDKSRWQEGNVFSCSVMHEALHNHYTQKSLSLSLGK | – | – | significant increase in phagocytosis | significant increase in phagocytosis | – | – |
| CD47 mAb: CD47 monoclonal antibody B6H12, variable regions SEQ ID Nos. 13 and 14 (antibody, V domains shown, Murine) VH: EVQLVESGGDLVKPGGSLKLSCAASGFTFSGYGMSWVRQTPDKRLEWVATITSGGTYTYYPDSVKGRFTISRDNAKNTLYLQIDSLKSEDTAIYFCARSLAGNAMDYWGQGTSVTVSS VL: DIVMTQSPATLSVTPGDRVSLSCRASQTISDYLHWYQQKSHESPRLLIKFASQSISGIPSRFSGSGSGSDFTLSINSVEPEDVGVYYCQNGHGFPRTFGGGTKLEIK | – | – | significant increase in phagocytosis | significant increase in phagocytosis | – | – |
